Laboratory results published in patent publication US8153424B2, “Method of in vitro differentiation of neural stem cells, motor neurons and dopamine neurons from primate embryonic stem cells” (Wisconsin Alumni Research Foundation, priority 2001, dated 2012).

Experiments:
Type in all cases: cell-based, human
[1] = tested on: voltage-gated sodium channels
[2] = tested on: voltage-activated sodium channels
[3] = tested on: early rosette cells (Pax6+/Sox1-); assay: RT-PCR of rostrocaudal genes in early rosette cells; details: RA 0.001-1.0 μM or FGF2 20 ng/ml for seven days; dose-dependent
Experimental: RT-PCR amplifications were performed from hESC-derived neuroectodermal cells at different stages and motor neuron differentiation cultures. The following primers were used: […] ID NO:11), [NT] ID NO:12), 318 bp; […] ID NO:13), [NT] ID NO:14), 290 bp; […] ID NO:15), [NT] ID NO:16), 340 bp; […] ID NO:17), [NT] ID NO:18), 429 bp; HoxBl, [NT] ID NO:19), [NT] ID NO:20), 218 bp; GAPDH, [NT] ID NO:1), [NT] ID NO:2), 450 bpi Olig-2, [NT] ID NO:21), [NT] ID NO:22), 315 bp; […] ID NO:23), [NT] ID NO:24), 337 bp; […] ID NO:25), [NT] ID NO:26), 473 bp; […] ID NO:27), [NT] ID NO:28), 459 bp; SHH, [NT] ID NO:29), [NT] ID NO:30), 339 bp; […] ID NO:31), [NT] ID NO:32), 335 bp.

[4] = tested on: hESC-derived EBs (H9 and H9.2 lines); assay: Formation of neural tube-like structures from embryoid bodies in the presence of FGF2; details: total 350 EBs from H9 and H9.2 lines, 3 separate experiments
Experimental: Differentiation cultures of ESCs. ESC cultures were incubated with dispase (Gibco BRL, 0.1 mg/ml) at 37° C. for 30 minutes, which removed ESC colonies intact. The ES cell colonies were pelleted, resuspended in ESC medium without FGF2, and cultured for four days in a 25-cm^2 tissue culture flask (Nunc) with a daily medium change. ESC colonies grew as floating EBs whereas any remaining feeder cells adhered to the flask. The feeder cells were removed by transferring the EBs into a new flask. EBs (˜50/flask) were then plated in a 25-cm^2 tissue culture flask (Nunc) in DMEM/F12, supplemented with insulin (25 μg/ml), transferrin (100 μg/ml), progesterone (20 nM), putrescine (60 μM), sodium selenite (30 nM), and heparin (2 μg/ml) in the presence of FGF2 (20 ng/ml) (Zhang et al., supra, 2000; Zhang et al., supra, 1999).

[5] = tested on: hESC-derived neural precursors; assay: BrdU incorporation by dissociated ES cell-derived neural precursors; details: FGF2 20 ng/ml, EGF 20 ng/ml, LIF 5 ng/ml; each alone
Experimental: Histochemical and immunohistochemical staining. To better visualize the rosette formations, cultures with rosettes were rinsed with PBS and fixed in 4% paraformaldehyde and 0.25% glutaraldehyde for 1 hour. The fixed cells were then processed for embedding in plastic resin as described (Zhang et al., supra, 1999). The cultured cells were then sectioned in 1-μm thickness and stained with toluidine blue. For immunostaining, the coverslip cultures were immunostained with the following primary antibodies detected by appropriate fluorescent secondary antibodies detailed elsewhere (Zhang et al., supra, 2000; Zhang et al., supra, 1999): anti-nestin (polyclonal, gift of Dr. R. McKay of NINDS, 1:1,000); anti-polysialylated neuronal cell adhesion molecule (PSA-NCAM, mouse IgM, gift of Dr. G. Rougon of University of Marseille, France, 1:200); anti-Musashi-1 (rat IgG, gift of Dr. H. Okano, University of Tokyo, Japan, 1:500); anti-GFAP (polyclonal, Dako, 1:1,000); anti-human GFAP (Sternberg monoclonals, 1:10,000); O4 (mouse IgM, hybridoma supernatant, 1:50); anti-tyrosine hydroxylase (TH, Pel Freez, 1:500). The remaining antibodies were from Sigma: anti-βIII-tubulin (mouse IgG, 1:500); anti-neurofilament (NF) 68 (mouse IgG, 1:1,000); anti-NF 200 (polyclonal, 1:5,000); anti-MAP2ab (mouse IgG, 1:250); anti-γ-aminobutyric acid (GABA, polyclonal, 1:10,000); anti-glutamate (mouse IgG, 1:10,000). For bromodeoxyuridine (BrdU) incorporation, 4 coverslip cultures in each group were incubated with 2 μM of BrdU for sixteen hours before the cultures were fixed in 4% paraformaldehyde, denatured with 1N HCl and processed for immunolabeling and cell counting (Zhang et al., supra, 2000; Zhang et al., supra, 1999).

Compound | Effect on inward currents [1] | Effect on inward currents and action potentials [2] | Expression of Otx2 and Hox genes (Hox B1, B6, C5, C8) [3] | EBs forming neural tube-like structures [4] | BrdU incorporation (stimulation of precursor cell proliferation) [5]
NC1=N[C@H](O)[C@H]2[C@H]3O[C@]4(O)O[C@@H]([C@@H](O)[C@@]2(N1)[C@@H]4O)[C@]3(O)CO [TTX, tetrodotoxin] | completely blocked | blocked |  |  | 
FGF2: growth factor FGF2 (Peprotech; R & D Systems) |  |  | decreased expression of Otx2 and increased expression of Hox genes | 94% | elevated
